Several values for one entry are separate records, joined by “and”; a condition that tells them apart may be missing. Identical values can stand only once.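 Each compound was tested at five concentrations against cells in 96-well plates for 48 hours. GI50: concentration for 50% inhibition of growth. TGI marks complete inhibition of growth.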
What was measured:
Test in all cases: NCI anticancer screen, dose series, 48 h; in the data active means GI50 below about 0.43 µM; inactive means the rest
EKVX NSCLC = tested on: EKVX NSCLC
OVCAR-4 ovarian = tested on: OVCAR-4 ovarian
SK-MEL-5 melanoma = tested on: SK-MEL-5 melanoma
SK-MEL-2 melanoma = tested on: SK-MEL-2 melanoma
SN12C renal = tested on: SN12C renal
MDA-MB-231 breast = tested on: MDA-MB-231 breast
NCI-H23 lung = tested on: NCI-H23 lung
RPMI-8226 leukemia = tested on: RPMI-8226 leukemia
A498 renal = tested on: A498 renal
UACC-257 melanoma = tested on: UACC-257 melanoma
PC-3 prostate = tested on: PC-3 prostate
UO-31 renal = tested on: UO-31 renal
KM12 colon = tested on: KM12 colon
SNB-19 CNS = tested on: SNB-19 CNS
HCT-116 colon = tested on: HCT-116 colon
LOX IMVI melanoma = tested on: LOX IMVI melanoma
SK-OV-3 ovarian = tested on: SK-OV-3 ovarian
SF-295 CNS = tested on: SF-295 CNS
MCF7 breast = tested on: MCF7 breast
SNB-75 CNS = tested on: SNB-75 CNS
U251 CNS = tested on: U251 CNS
BT-549 breast = tested on: BT-549 breast
IGROV1 ovarian = tested on: IGROV1 ovarian
HOP-62 NSCLC = tested on: HOP-62 NSCLC
SK-MEL-28 melanoma = tested on: SK-MEL-28 melanoma
T-47D breast = tested on: T-47D breast
HS 578T breast = tested on: HS 578T breast
HCC-2998 colon = tested on: HCC-2998 colon
UACC-62 melanoma = tested on: UACC-62 melanoma
HL-60(TB) leukemia = tested on: HL-60(TB) leukemia
SW-620 colon = tested on: SW-620 colon
NCI-H522 lung = tested on: NCI-H522 lung
CCRF-CEM leukemia = tested on: CCRF-CEM leukemia
786-0 renal = tested on: 786-0 renal
K-562 leukemia = tested on: K-562 leukemia
COLO 205 colon = tested on: COLO 205 colon
HCT-15 colon = tested on: HCT-15 colon
OVCAR-3 ovarian = tested on: OVCAR-3 ovarian
MDA-MB-435 = tested on: MDA-MB-435
OVCAR-5 ovarian = tested on: OVCAR-5 ovarian
NCI-H226 lung = tested on: NCI-H226 lung
MOLT-4 leukemia = tested on: MOLT-4 leukemia
DU-145 prostate = tested on: DU-145 prostate
SF-268 CNS = tested on: SF-268 CNS
NCI-H460 lung = tested on: NCI-H460 lung
OVCAR-8 ovarian = tested on: OVCAR-8 ovarian
TK-10 renal = tested on: TK-10 renal
CAKI-1 renal = tested on: CAKI-1 renal
A549 NSCLC = tested on: A549 NSCLC
HOP-92 NSCLC = tested on: HOP-92 NSCLC
NCI/ADR-RES ovarian = tested on: NCI/ADR-RES ovarian
M14 melanoma = tested on: M14 melanoma
MALME-3M melanoma = tested on: MALME-3M melanoma
HT29 colon = tested on: HT29 colon
RXF 393 renal = tested on: RXF 393 renal
SF-539 CNS = tested on: SF-539 CNS
ACHN renal = tested on: ACHN renal
SR leukemia = tested on: SR leukemia

O=C(Cc1ccc(-c2ccc(OCCN3CCOCC3)cc2)cn1)NCc1ccccc1
1.76 µM: TGI (M14 melanoma)
0.0392 µM: TGI (MDA-MB-435)
> 100 µM: TGI (EKVX NSCLC) | TGI (OVCAR-4 ovarian) | TGI (SK-MEL-2 melanoma) | TGI (SN12C renal) | TGI (MDA-MB-231 breast) | TGI (NCI-H23 lung) | TGI (PC-3 prostate) | TGI (UO-31 renal) | TGI (SNB-19 CNS) | TGI (HCT-116 colon) | TGI (LOX IMVI melanoma) | TGI (SF-295 CNS) | TGI (MCF7 breast) | TGI (SNB-75 CNS) | TGI (U251 CNS) | TGI (IGROV1 ovarian) | TGI (SK-MEL-28 melanoma) | TGI (HS 578T breast) | TGI (UACC-62 melanoma) | TGI (SW-620 colon) | TGI (CCRF-CEM leukemia) | TGI (786-0 renal) | TGI (K-562 leukemia) | TGI (HCT-15 colon) | TGI (OVCAR-5 ovarian) | TGI (NCI-H226 lung) | TGI (MOLT-4 leukemia) | TGI (SF-268 CNS) | TGI (TK-10 renal) | TGI (CAKI-1 renal) | TGI (A549 NSCLC) | TGI (NCI/ADR-RES ovarian) | TGI (MALME-3M melanoma) | TGI (ACHN renal)
> 37.6 µM: TGI (HT29 colon)
0.0858 µM and 0.632 µM: TGI (COLO 205 colon)
0.331 µM and 0.0822 µM: TGI (A498 renal)
active: GI50 (SK-MEL-5 melanoma) 0.0286 µM and 0.0399 µM | GI50 (SK-MEL-2 melanoma) 0.105 µM and 0.06 µM | GI50 (SN12C renal) 0.0845 µM and 0.0611 µM | GI50 (MDA-MB-231 breast) 0.0577 µM and 0.0833 µM | GI50 (NCI-H23 lung) 0.0458 µM and 0.0493 µM | GI50 (RPMI-8226 leukemia) 0.0427 µM and 0.0358 µM | GI50 (A498 renal) 0.0247 µM and 0.0277 µM | GI50 (PC-3 prostate) 0.0446 µM and 0.0456 µM | GI50 (UO-31 renal) 0.0821 µM and 0.2 µM | GI50 (KM12 colon) 0.032 µM and 0.0387 µM | GI50 (SNB-19 CNS) 0.0528 µM and 0.0448 µM | GI50 (HCT-116 colon) 0.0373 µM and 0.0399 µM | GI50 (LOX IMVI melanoma) 0.0612 µM and 0.0636 µM | GI50 (SK-OV-3 ovarian) 0.0303 µM and 0.0549 µM | GI50 (SF-295 CNS) 0.0296 µM and 0.0347 µM | GI50 (MCF7 breast) < 0.0164 µM and 0.0356 µM | GI50 (SNB-75 CNS) 0.0333 µM and 0.0218 µM | GI50 (U251 CNS) 0.0417 µM and 0.0377 µM | GI50 (BT-549 breast) 0.159 µM and 0.0767 µM | GI50 (IGROV1 ovarian) 0.0944 µM and 0.0708 µM | GI50 (HOP-62 NSCLC) 0.0372 µM and 0.066 µM | GI50 (SK-MEL-28 melanoma) 0.0462 µM and 0.211 µM | GI50 (HS 578T breast) 0.0381 µM and 0.0284 µM | GI50 (HCC-2998 colon) 0.0316 µM and 0.166 µM | GI50 (UACC-62 melanoma) 0.0408 µM | GI50 (HL-60(TB) leukemia) 0.0294 µM and 0.0309 µM | GI50 (SW-620 colon) 0.0376 µM and 0.0388 µM | GI50 (NCI-H522 lung) 0.0223 µM and 0.0242 µM | GI50 (CCRF-CEM leukemia) 0.0397 µM and 0.0433 µM | GI50 (786-0 renal) 0.0675 µM and 0.0857 µM | GI50 (K-562 leukemia) 0.0255 µM and 0.0264 µM | GI50 (COLO 205 colon) 0.0291 µM and 0.0361 µM | GI50 (HCT-15 colon) 0.0294 µM and 0.0387 µM | GI50 (OVCAR-3 ovarian) 0.0352 µM | GI50 (MDA-MB-435) 0.0162 µM | GI50 (OVCAR-5 ovarian) 0.0605 µM and 0.119 µM | GI50 (NCI-H226 lung) 0.244 µM and 0.112 µM | GI50 (MOLT-4 leukemia) 0.0999 µM and 0.0685 µM | GI50 (DU-145 prostate) 0.0324 µM and 0.0387 µM | GI50 (SF-268 CNS) 0.083 µM and 0.332 µM | GI50 (NCI-H460 lung) 0.0355 µM and 0.0371 µM | GI50 (OVCAR-8 ovarian) 0.0466 µM and 0.0493 µM | GI50 (CAKI-1 renal) 0.0703 µM and 0.0506 µM | GI50 (A549 NSCLC) 0.0405 µM and 0.0537 µM | GI50 (HOP-92 NSCLC) 0.0543 µM and 0.353 µM | GI50 (NCI/ADR-RES ovarian) 0.0334 µM and 0.0341 µM | GI50 (M14 melanoma) 0.0285 µM | GI50 (MALME-3M melanoma) 0.15 µM | GI50 (HT29 colon) 0.0343 µM and 0.0342 µM | GI50 (RXF 393 renal) 0.0108 µM | GI50 (SF-539 CNS) 0.0283 µM and 0.0301 µM | GI50 (ACHN renal) 0.0857 µM and 0.0811 µM
8.59 µM and > 7.16 µM: TGI (HOP-92 NSCLC)
> 50.2 µM: TGI (RPMI-8226 leukemia)
0.22 µM and 1.25 µM: TGI (SK-MEL-5 melanoma)
94.9 µM and > 10 µM: TGI (UACC-257 melanoma)
0.0497 µM: TGI (RXF 393 renal)
55.9 µM and > 10 µM: TGI (T-47D breast)
> 88.4 µM: TGI (HOP-62 NSCLC)
16.2 µM and > 10 µM: TGI (NCI-H460 lung)
> 7.88 µM: TGI (KM12 colon)
0.0831 µM: TGI (NCI-H522 lung)
0.112 µM and 0.711 µM: GI50 (UACC-257 melanoma)
7.01 µM and > 10 µM: TGI (SK-OV-3 ovarian)
> 36.2 µM: TGI (OVCAR-8 ovarian)

CN(CCN1C(=O)c2cccc3cccc(c23)C1=O)CCN1C(=O)c2cccc3cccc(c23)C1=O
27.5 µM: TGI (786-0 renal)
24.7 µM: TGI (U251 CNS)
6.91 µM: TGI (CCRF-CEM leukemia)
29 µM: TGI (SF-295 CNS)
40.6 µM: TGI (NCI-H522 lung)
49.9 µM: TGI (SNB-75 CNS)
> 100 µM: TGI (EKVX NSCLC) | TGI (OVCAR-4 ovarian) | TGI (SK-MEL-5 melanoma) | TGI (SK-MEL-2 melanoma) | TGI (SN12C renal) | TGI (UACC-257 melanoma) | TGI (PC-3 prostate) | TGI (KM12 colon) | TGI (HCT-116 colon) | TGI (LOX IMVI melanoma) | TGI (MCF7 breast) | TGI (BT-549 breast) | TGI (IGROV1 ovarian) | TGI (SK-MEL-28 melanoma) | TGI (HS 578T breast) | TGI (UACC-62 melanoma) | TGI (HL-60(TB) leukemia) | TGI (K-562 leukemia) | TGI (HCT-15 colon) | TGI (MDA-MB-435) | TGI (OVCAR-5 ovarian) | TGI (MOLT-4 leukemia) | TGI (DU-145 prostate) | TGI (SF-268 CNS) | TGI (NCI-H460 lung) | TGI (CAKI-1 renal) | TGI (A549 NSCLC) | TGI (NCI/ADR-RES ovarian) | TGI (M14 melanoma) | TGI (MALME-3M melanoma) | TGI (HT29 colon) | TGI (SF-539 CNS)
33.6 µM: TGI (MDA-MB-231 breast)
13 µM: TGI (SR leukemia)
76.9 µM: TGI (RXF 393 renal)
19.2 µM: TGI (OVCAR-8 ovarian)
16.6 µM: TGI (SK-OV-3 ovarian)
20.7 µM: TGI (ACHN renal)
27.7 µM: TGI (TK-10 renal)
10.2 µM: TGI (T-47D breast)
26.4 µM: TGI (HOP-62 NSCLC)
16.8 µM: TGI (SNB-19 CNS)
16.5 µM: TGI (COLO 205 colon)
74.8 µM: TGI (OVCAR-3 ovarian)
75.2 µM: TGI (NCI-H226 lung)
28.8 µM: TGI (UO-31 renal)
43.7 µM: TGI (NCI-H23 lung)
